Data from ChEMBL document CHEMBL5550133, “Update on the development of TGR5 agonists for human diseases” (Eur J Med Chem, 2024).
pEC50, pIC50: −log10 of the molar value. In brackets after ≈: the same amount, converted by molar mass.

Key:
[1] = biological target: T1, G-protein coupled bile acid receptor 1 (Mus musculus, UniProt Q80SS6); assay: Agonist activity at mouse TGR5 receptor; format: functional
T1 sequence (Q80SS6 whole entry): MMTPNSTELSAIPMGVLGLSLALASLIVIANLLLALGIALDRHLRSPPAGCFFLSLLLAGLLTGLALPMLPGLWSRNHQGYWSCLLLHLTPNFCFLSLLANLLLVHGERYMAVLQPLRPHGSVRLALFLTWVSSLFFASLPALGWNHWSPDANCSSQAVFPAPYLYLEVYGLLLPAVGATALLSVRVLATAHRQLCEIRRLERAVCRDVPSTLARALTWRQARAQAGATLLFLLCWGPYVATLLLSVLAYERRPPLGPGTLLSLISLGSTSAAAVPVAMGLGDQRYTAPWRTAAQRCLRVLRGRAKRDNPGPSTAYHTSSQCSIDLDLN

[2] = biological target: CYP450 (isoform not specified) (Homo sapiens, UniProt P04798+P05177+P05181+P08684+P10632+P10635+P11509+P11712+P13584+P20813+P20815+P20853+P24462+P24903+P33260+P33261+P51589+P78329+P98187+Q02928+Q08477+Q16678+Q16696+Q5TCH4+Q6VVX0+Q7Z449+Q8TAV3+Q96SQ9+Q9HB55); assay: Inhibition of CYP450 (unknown origin); format: ADME, protein assay
[3] = biological target: T1, G-protein coupled bile acid receptor 1; assay: Agonist activity at mouse TGR5 receptor expressed in HEK293 cells assessed as activation of intracellular cAMP production incubated for 2 hrs by luciferase reporter gene assay; format: functional, cell-based
[4] = Aqueous solubility of compound; format: physicochemical; conditions: aqueous (not further specified)
Cytochrome P450 2C9 = Cytochrome P450 2C9 (Homo sapiens, UniProt P11712); assay: Inhibition of CYP2C9 (unknown origin); format: ADME
Sequence of Cytochrome P450 2C9 (P11712 whole entry): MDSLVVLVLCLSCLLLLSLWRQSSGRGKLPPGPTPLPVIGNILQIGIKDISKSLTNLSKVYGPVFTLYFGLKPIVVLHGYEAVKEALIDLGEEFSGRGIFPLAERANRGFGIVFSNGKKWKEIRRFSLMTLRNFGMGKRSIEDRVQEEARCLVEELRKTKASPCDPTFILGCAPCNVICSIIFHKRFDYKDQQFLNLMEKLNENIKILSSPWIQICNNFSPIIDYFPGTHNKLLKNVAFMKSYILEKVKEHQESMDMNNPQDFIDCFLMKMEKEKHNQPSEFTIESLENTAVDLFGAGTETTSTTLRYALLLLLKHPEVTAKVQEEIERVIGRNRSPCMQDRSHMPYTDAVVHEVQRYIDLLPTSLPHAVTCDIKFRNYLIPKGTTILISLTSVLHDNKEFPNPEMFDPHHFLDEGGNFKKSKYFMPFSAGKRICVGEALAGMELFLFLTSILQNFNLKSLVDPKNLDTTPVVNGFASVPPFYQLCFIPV

Cytochrome P450 3A4 = Cytochrome P450 3A4 (Homo sapiens, UniProt P08684); assay: Inhibition of CYP3A4 (unknown origin); format: ADME
Sequence of Cytochrome P450 3A4 (P08684 whole entry): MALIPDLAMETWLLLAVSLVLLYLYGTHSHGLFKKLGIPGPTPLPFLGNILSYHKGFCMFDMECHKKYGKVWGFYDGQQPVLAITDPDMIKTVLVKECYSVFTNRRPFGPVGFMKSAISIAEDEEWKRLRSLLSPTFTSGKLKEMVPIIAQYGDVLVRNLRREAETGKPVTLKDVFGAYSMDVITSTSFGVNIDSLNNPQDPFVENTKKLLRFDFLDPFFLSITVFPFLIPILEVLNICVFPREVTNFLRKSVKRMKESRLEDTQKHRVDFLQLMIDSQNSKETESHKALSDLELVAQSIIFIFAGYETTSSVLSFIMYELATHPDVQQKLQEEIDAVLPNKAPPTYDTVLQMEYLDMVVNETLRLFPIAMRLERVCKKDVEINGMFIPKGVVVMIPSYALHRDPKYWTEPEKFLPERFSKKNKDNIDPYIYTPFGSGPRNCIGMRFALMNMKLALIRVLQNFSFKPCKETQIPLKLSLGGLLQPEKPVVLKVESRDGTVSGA

[5] = Clearance in human liver microsomes; format: ADME, Microsome; conditions: read-out: CLH
[6] = biological target: T2, G-protein coupled bile acid receptor 1 (Homo sapiens, UniProt Q8TDU6); assay: Agonist activity at TGR5 (unknown origin) expressed in HEK293 cells; format: functional, cell-based
T2 sequence (Q8TDU6 whole entry): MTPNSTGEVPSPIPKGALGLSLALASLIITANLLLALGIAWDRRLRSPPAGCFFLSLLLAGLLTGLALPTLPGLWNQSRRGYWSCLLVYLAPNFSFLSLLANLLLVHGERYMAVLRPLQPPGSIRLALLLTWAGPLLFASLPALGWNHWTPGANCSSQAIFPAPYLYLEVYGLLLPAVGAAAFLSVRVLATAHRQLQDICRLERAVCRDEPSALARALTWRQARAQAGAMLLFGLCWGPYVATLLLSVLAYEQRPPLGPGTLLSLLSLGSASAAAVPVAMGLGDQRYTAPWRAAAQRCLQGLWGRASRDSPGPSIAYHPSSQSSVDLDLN

[7] = biological target: T3, G-protein coupled bile acid receptor 1 (Homo sapiens) (UniProt Q8TDU6); assay: Agonist activity at TGR5 in human NCI-H716 cells assessed as increase in GLP-1 secretion at 5 uM measured for 60 mins by SEAP reporter gene based assay relative to control; format: functional, cell-based; conditions: filed as agonist
T3 sequence (whole entry): T2 sequence (Q8TDU6 whole entry)

[8] = Oral bioavailability in mouse at 2 mg/kg; format: ADME, organism-based; conditions: in vivo
[9] = biological target: T2, G-protein coupled bile acid receptor 1; assay: Agonist activity at human TGR5; format: functional
[10] = biological target: T2, G-protein coupled bile acid receptor 1; assay: Agonist activity at TGR5 in HEK293 cells; format: functional, cell-based
[11] = biological target: T2, G-protein coupled bile acid receptor 1; assay: Agonist activity at TGR5 receptor in human NCI-H716 cells assessed as activation of intracellular cAMP production incubated for 1 hr by TR-FRET assay; format: functional, cell-based
[12] = biological target: T2, G-protein coupled bile acid receptor 1; assay: Agonist activity at TGR5 (unknown origin) in CHO-K1 cells; format: functional, cell-based
[13] = biological target: T2, G-protein coupled bile acid receptor 1; assay: Agonist activity at TGR5 (unknown origin); format: functional

Fc1cccc(F)c1-c1ccncc1CN1C(c2ccco2)=NO[C@@H]1c1cc(C(F)(F)F)cc(C(F)(F)F)c1Cl
pEC50 [1]: 6.60

CCc1onc(-c2ccccc2)c1C(=O)N(C)c1ccc(Cl)cc1
pIC50 [2]: 6.60

CN(CC[N+](C)(C)C)C(=O)CCc1cc(Cl)c(Oc2ccsc2C(=O)N2CCSc3ccccc32)cc1Cl
pEC50 [3]: 7.13

O=C(c1cccnc1Oc1cccc(C(F)(F)F)c1)N1CCCc2ccccc21
solubility [4]: 1 µg/mL (≈ 2.51 µM)
pIC50 (Cytochrome P450 2C9): 5.66
pIC50 (Cytochrome P450 3A4): 5.23

O=C(Nc1nnn[nH]1)c1cc(Cl)c(Oc2ncccc2C(=O)N2CCN(C3CC3)c3ccccc32)cc1Cl
CLint scaled [5]: 56 mL/min/kg
pIC50 (Cytochrome P450 2C9): < 5.00
pEC50 [6]: 7.15
pIC50 (Cytochrome P450 3A4): < 5.00

COC(=O)NCc1cccc([C@H]2O[C@H](CC(=O)NCc3ccccc3F)C(=O)N(CC(C)(C)COC(C)=O)c3ccc(Cl)cc32)c1
Activity [7]: 165%

Cc1cc(/C(C[C@H](c2ccc(C3CCC(C(=O)O)CC3)cc2)c2ccccc2C)=N\O)ccn1 (stereo partly specified)
bioavailability [8]: 100%

COc1cc(-n2c(N(C)c3ccc(OC)c(OC)c3)cnc2SCc2c(F)cc(OCCCS(=O)(=O)O)cc2F)ccc1F
pEC50 [1]: 9.30

CN(Cc1cnccc1-c1ccccc1F)C(C#N)c1cc(C(F)(F)F)cc(C(F)(F)F)c1 (stereo unspecified)
pEC50 [1]: 6.82
pEC50 [9]: 7.46

CC(C)[C@@H](CO)NC(=O)CC[C@@H](C)[C@H]1CC[C@H]2[C@@H]3[C@@H](OC=O)C[C@@H]4C[C@H](OC=O)CC[C@]4(C)[C@H]3CC[C@]12C
pEC50 [10]: 6.96

COc1ccc(S(=O)(=O)N2CCCN(S(=O)(=O)c3ccc(OC)c(OC)c3)CC2)cc1OC [SB-756050]
pEC50 [11]: 5.89

C[C@H]1[C@H](C)CC[C@]2(C(=O)O)CC[C@]3(C)C(=CC[C@@H]4[C@@]5(C)C[C@@H](O)[C@H](O)C(C)(C)[C@@H]5CC[C@]43C)[C@H]12 [COROSOLIC ACID]
pEC50 [12]: 6.30

CC(c1cc(C(F)(F)F)cc(C(F)(F)F)c1)N1CCOc2nccc(-c3ccccc3)c2C1 (stereo unspecified)
Activity [7]: 111%

O=C(c1cccnc1Oc1cc(Cl)ccc1Cl)N1CCN(C2COC2)c2ccccc21
CLint scaled [5]: 578 mL/min/kg
pEC50 [1]: 6.28
pIC50 (Cytochrome P450 2C9): 5.09
pEC50 [6]: 8.00
pIC50 (Cytochrome P450 3A4): 6.52

CO[C@H]1C[C@H]2[C@@H]([C@H](OC)C[C@@H]3C[C@H](O)CC[C@@]32C)[C@@H]2CC[C@H]([C@H](C)CCC(=O)N3CCCC3)[C@@]12C
pEC50 [13]: 6.82

CC1(C)CC[C@]2(C(=O)O)CC[C@]3(C)C(=CC[C@@H]4[C@@]5(C)C[C@@H](O)[C@H](O)C(C)(C)[C@@H]5CC[C@]43C)[C@@H]2C1 [MASLINIC ACID]
pEC50 [12]: 5.43
